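48-hour exposure; five concentrations; linearly interpolated endpoints. Definition used: TGI = concentration required for complete inhibition of growth.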
Legend:
Test in all cases: NCI tumour cell line growth inhibition, 48 h
[1] = tested on: 786-0 renal
[2] = tested on: A498 renal
[3] = tested on: A549 NSCLC
[4] = tested on: ACHN renal
[5] = tested on: BT-549 breast
[6] = tested on: CAKI-1 renal
[7] = tested on: CCRF-CEM leukemia
[8] = tested on: COLO 205 colon
[9] = tested on: DU-145 prostate
[10] = tested on: EKVX NSCLC
[11] = tested on: HCC-2998 colon
[12] = tested on: HCT-116 colon
[13] = tested on: HCT-15 colon
[14] = tested on: HL-60(TB) leukemia
[15] = tested on: HOP-62 NSCLC
[16] = tested on: HOP-92 NSCLC
[17] = tested on: HS 578T breast
[18] = tested on: HT29 colon
[19] = tested on: IGROV1 ovarian
[20] = tested on: K-562 leukemia
[21] = tested on: KM12 colon
[22] = tested on: LOX IMVI melanoma
[23] = tested on: M14 melanoma
[24] = tested on: MALME-3M melanoma
[25] = tested on: MCF7 breast
[26] = tested on: MDA-MB-231 breast
[27] = tested on: MDA-MB-435
[28] = tested on: MDA-N
[29] = tested on: MOLT-4 leukemia
[30] = tested on: NCI-H226 lung
[31] = tested on: NCI-H23 lung
[32] = tested on: NCI-H460 lung
[33] = tested on: NCI-H522 lung
[34] = tested on: NCI/ADR-RES ovarian
[35] = tested on: OVCAR-3 ovarian
[36] = tested on: OVCAR-4 ovarian
[37] = tested on: OVCAR-5 ovarian
[38] = tested on: OVCAR-8 ovarian
[39] = tested on: PC-3 prostate
[40] = tested on: SF-268 CNS
[41] = tested on: SF-295 CNS
[42] = tested on: SF-539 CNS
[43] = tested on: SK-MEL-2 melanoma
[44] = tested on: SK-MEL-28 melanoma
[45] = tested on: SK-MEL-5 melanoma
[46] = tested on: SK-OV-3 ovarian
[47] = tested on: SN12C renal
[48] = tested on: SNB-19 CNS
[49] = tested on: SNB-75 CNS
[50] = tested on: SR leukemia
[51] = tested on: SW-620 colon
[52] = tested on: T-47D breast
[53] = tested on: TK-10 renal
[54] = tested on: U251 CNS
[55] = tested on: UACC-257 melanoma
[56] = tested on: UACC-62 melanoma
[57] = tested on: UO-31 renal

Measured: TGI

CCCNc1[nH]c(C(=O)c2ccccc2)c(N)c1C(=S)Nc1ccccc1
> 100 µM: all assays above

Source: PubChem BioAssay (NCI)
